In test [1] the target is T1, Recombinant (1-346) HPK1 (h) (Homo sapiens, UniProt Q92918).
T1 construct: Recombinant (1-346) HPK1 (h) is incubated with 8 mM MOPS pH 7.0
T1 sequence (Q92918 1-346): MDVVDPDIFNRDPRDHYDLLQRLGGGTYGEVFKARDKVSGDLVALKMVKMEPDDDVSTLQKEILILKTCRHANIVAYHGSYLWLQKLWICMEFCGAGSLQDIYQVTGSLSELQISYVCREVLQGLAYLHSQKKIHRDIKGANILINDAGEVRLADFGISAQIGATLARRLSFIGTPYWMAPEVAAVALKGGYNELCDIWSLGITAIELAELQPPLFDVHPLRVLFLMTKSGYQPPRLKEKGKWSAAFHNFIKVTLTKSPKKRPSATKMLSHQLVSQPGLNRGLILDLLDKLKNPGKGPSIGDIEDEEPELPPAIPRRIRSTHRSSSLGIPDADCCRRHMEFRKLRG
As to the kind of experiment: HPK1 Human STE Kinase Enzymatic Radiometric Assay. The note with it: read-out: HPK1 IC50 nM Range*. Format: biochemical. How it is done:
A stock solution of 10 mM of test compound is prepared in DMSO. The compound plate was prepared by 3-fold and 9-point serial dilutions. […] The reaction is initiated by The addition of the Mg/ATP mix. After incubation for 40 minutes at RT, the reaction is stopped by the addition of phosphoric acid to a concentration of 0.5%.

Another test concerns the target Lck (h) (Homo sapiens, UniProt P06239). Briefly: Lck Human  Kinase Enzymatic Radiometric Assay. Format: biochemical. Conditions: read-out: Lck IC50 nM Range*. In short, it runs like this: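 Substrate 33P-incorporation measured by scintillation counting after spotting on P30 filtermat and phosphoric acid washes. Human Lck reacted 40 min at RT in 50 mM Tris pH 7.5 with 10 mM MgAcetate, [gamma-33P]-ATP, 250 uM Cdc2 peptide, 0.1 mM EGTA and 0.1 mM Na3VO4.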

As usually defined, the IC50 is the concentration needed to halve the response being measured.

Molecules are shown by their SMILES.

Sequence of Lck (h) (P06239 whole entry): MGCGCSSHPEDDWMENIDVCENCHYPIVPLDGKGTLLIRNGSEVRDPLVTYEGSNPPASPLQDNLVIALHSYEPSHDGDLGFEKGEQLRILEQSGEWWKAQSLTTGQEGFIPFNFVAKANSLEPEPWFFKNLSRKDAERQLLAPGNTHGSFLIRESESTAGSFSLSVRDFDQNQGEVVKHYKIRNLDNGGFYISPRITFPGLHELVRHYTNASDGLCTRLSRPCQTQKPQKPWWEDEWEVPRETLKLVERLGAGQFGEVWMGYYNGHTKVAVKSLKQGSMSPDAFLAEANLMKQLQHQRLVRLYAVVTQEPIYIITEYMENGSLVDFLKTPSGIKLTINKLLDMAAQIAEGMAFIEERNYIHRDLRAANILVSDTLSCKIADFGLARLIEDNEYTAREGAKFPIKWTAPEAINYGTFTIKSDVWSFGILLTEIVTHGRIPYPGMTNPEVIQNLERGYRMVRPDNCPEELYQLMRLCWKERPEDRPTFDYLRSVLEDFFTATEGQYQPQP

For the compound `CN(C)C1CCN(c2ccc(-c3cc(-c4ccc5c(c4)CCNC5=O)c(N)nc3F)cc2)CC1` [I-283, 6-(2-amino-5-(4-(4-(dimethylamino)piperidin-1-yl)phenyl)-6-fluoropyridin-3-yl)-3,4-dihydroisoquinolin-1(2H)-one], the 50% inhibitory concentration (IC50) in test [1] was 0.1 to 10 nM; on Lck (h), greater than 1000 nM.
Taken in the same sequence, the figures for `Nc1nc(F)c(-c2ccc(N3CCN(CCC(F)(F)F)CC3)cc2)cc1-c1ccc2c(c1)CCNC2=O` [I-240, 6-(2-amino-6-fluoro-5-(4-(4-(3,3,3-trifluoropropyl)piperazin-1-yl)phenyl)pyridin-3-yl)-3,4-dihydroisoquinolin-1(2H)-one] were 0.1 to 10 nM and greater than 1000 nM.
Taken in the same sequence, the figures for `CC(C)N1CCN(c2ccc(-c3cc(-c4cc(N)c5c(c4)CCNC5=O)c(N)nc3F)cc2)CC1` [I-357, 8-amino-6-(2-amino-6-fluoro-5-(4-(4-isopropylpiperazin-1-yl)phenyl)pyridin-3-yl)-3,4-dihydroisoquinolin-1(2H)-one] were 101 to 1000 nM and 101 to 1000 nM.
The corresponding values for `Nc1nc(F)c(-c2ccc(N3CCNCC3)cc2)cc1-c1cc2c(cc1F)C(=O)NCC2` [I-172, 6-(2-amino-6-fluoro-5-(4-(piperazin-1-yl)phenyl)pyridin-3-yl)-7-fluoro-3,4-dihydroisoquinolin-1(2H)-one 2,2,2-trifluoroacetate] are 0.1 to 10 nM and greater than 1000 nM.
`COC1(c2ccc(-c3cc(-c4ccc5c(c4)CCNC5=O)c(N)nc3F)cc2)CCN(C(C)C)CC1` [I-294, 6-(2-amino-6-fluoro-5-(4-(1-isopropyl-4-methoxypiperidin-4-yl)phenyl)pyridin-3-yl)-3,4-dihydroisoquinolin-1(2H)-one]: the IC50 in test [1] was 0.1 to 10 nM; on Lck (h), greater than 1000 nM.
Taken in the same sequence, the figures for `N#Cc1cc(-c2cc(-c3cc4c(cc3F)C(=O)NCC4)c(N)nc2F)ccc1OC1CCN(CC(F)(F)F)CC1` [I-293, 5-(6-amino-2-fluoro-5-(7-fluoro-1-oxo-1,2,3,4-tetrahydroisoquinolin-6-yl)pyridin-3-yl)-2-((1-(2,2,2-trifluoroethyl)piperidin-4-yl)oxy)benzonitrile] were 11 to 100 nM and greater than 1000 nM.
Taken in the same sequence, the figures for `CC(C)N1CCN(c2ccc(-c3cc(-c4cc5c(c(N(C)C)c4)C(=O)NCC5)c(N)nc3F)cc2)CC1` [I-355, 6-(2-amino-6-fluoro-5-(4-(4-isopropylpiperazin-1-yl)phenyl)pyridin-3-yl)-8-(dimethylamino)-3,4-dihydroisoquinolin-1(2H)-one] were 101 to 1000 nM and greater than 1000 nM.
The corresponding values for `COCCN1CCC(c2ccc(-c3cc(-c4ccc5c(c4)CCNC5=O)c(N)nc3Cl)cc2)CC1` [I-166, 6-(2-amino-6-chloro-5-(4-(1-(2-methoxyethyl)piperidin-4-yl)phenyl)pyridin-3-yl)-3,4-dihydroisoquinolin-1(2H)-one] are 11 to 100 nM and greater than 1000 nM.
Regarding `Nc1nc(F)c(-c2ccc(OC3CCN(C4COC4)CC3)cc2)cc1-c1cc2c(cc1F)C(=O)NCC2` [I-325, 6-(2-amino-6-fluoro-5-(4-((1-(oxetan-3-yl)piperidin-4-yl)oxy)phenyl)pyridin-3-yl)-7-fluoro-3,4-dihydroisoquinolin-1(2H)-one], the concentration for half-maximal inhibition (IC50) in test [1] is 11 to 100 nM; on Lck (h), greater than 1000 nM.
The corresponding values for `CC(C)[C@H]1CN(c2ccc(-c3cc(-c4ccc5c(c4)CCNC5=O)c(N)nc3F)cc2)CCO1` [I-10, (S)-6-(2-amino-6-fluoro-5-(4-(2-isopropylmorpholino)phenyl)pyridin-3-yl)-3,4-dihydroisoquinolin-1(2H)-one] are 11 to 100 nM and greater than 1000 nM.
The corresponding values for `CC(C)(C)OC(=O)N1CCN(c2ccc(-c3cc(-c4ccc5c(c4)CCNC5=O)c(N)nc3F)cc2C(F)(F)F)CC1` [I-177, tert-butyl 4-(4-(6-amino-2-fluoro-5-(1-oxo-1,2,3,4-tetrahydroisoquinolin-6-yl)pyridin-3-yl)-2-(trifluoromethyl)phenyl)piperazine-1-carboxylate] are 101 to 1000 nM and greater than 1000 nM.
`CCN(CC)S(=O)(=O)c1ccc(-c2cc(-c3ccc4c(c3)CCNC4=O)c(N)nc2F)cc1` [I-65, 4-(6-amino-2-fluoro-5-(1-oxo-1,2,3,4-tetrahydroisoquinolin-6-yl)pyridin-3-yl)-N,N-diethylbenzenesulfonamide]: the figures for the half-inhibitory concentration (IC50) (in test [1]; on Lck (h)) were 11 to 100 nM and greater than 1000 nM, respectively.
Taken in the same sequence, the figures for `Nc1nc(F)c(-c2ccc(OC3CCN(CCC(F)(F)F)CC3)cc2)cc1-c1ccc2c(c1)CCNC2=O` [I-187, 6-(2-amino-6-fluoro-5-(4-((1-(3,3,3-trifluoropropyl)piperidin-4-yl)oxy)phenyl)pyridin-3-yl)-3,4-dihydroisoquinolin-1(2H)-one] were 0.1 to 10 nM and greater than 1000 nM.
Taken in the same sequence, the figures for `CC(C)[C@H]1CN(c2ccc(-c3cc(-c4ccc5c(c4)CCNC5=O)c(N)nc3F)cc2C(F)(F)F)CCO1` [I-130, (S)-6-(2-amino-6-fluoro-5-(4-(2-isopropylmorpholino)-3-(trifluoromethyl)phenyl)pyridin-3-yl)-3,4-dihydroisoquinolin-1(2H)-one] were 11 to 100 nM and greater than 1000 nM.
With `CCN(C)C1CCN(c2ccc(-c3cc(-c4ccc5c(c4)CCNC5=O)c(N)nc3F)cc2)C1` (centres unmarked) [I-158, 6-(2-amino-5-(4-(3-(ethyl(methyl)amino)pyrrolidin-1-yl)phenyl)-6-fluoropyridin-3-yl)-3,4-dihydroisoquinolin-1(2H)-one], the half-inhibitory concentration (IC50) in test [1] was in the range of 0.1 to 10 nM; at Lck (h) it was 101 to 1000 nM.
The corresponding values for `Nc1nc(F)c(-c2ccc(OC3CCNCC3)c3c2OCO3)cc1-c1ccc2c(c1)CCNC2=O` [I-145, 6-(2-amino-6-fluoro-5-(7-(piperidin-4-yloxy)benzo[d][1,3]dioxol-4-yl)pyridin-3-yl)-3,4-dihydroisoquinolin-1(2H)-one] are 0.1 to 10 nM and greater than 1000 nM.
Taken in the same sequence, the figures for `Nc1nc(F)c(-c2ccc(OC3CN(CC4CC4)C3)cc2)cc1-c1ccc2c(c1)CCNC2=O` [I-321, 6-(2-amino-5-(4-((1-(cyclopropylmethyl)azetidin-3-yl)oxy)phenyl)-6-fluoropyridin-3-yl)-3,4-dihydroisoquinolin-1(2H)-one] were 0.1 to 10 nM and greater than 1000 nM.
The corresponding values for `CS(=O)(=O)c1ccc(-c2cc(-c3ccc4c(c3)CCNC4=O)c(N)nc2F)cc1` [I-62, 6-(2-amino-6-fluoro-5-(4-(methylsulfonyl)phenyl)pyridin-3-yl)-3,4-dihydroisoquinolin-1(2H)-one] are 0.1 to 10 nM and greater than 1000 nM.
Take `COCCN1CCC2(CCc3cc(-c4cc(-c5ccc6c(c5)CCNC6=O)c(N)nc4F)ccc3O2)CC1` [I-216, 6-(2-amino-6-fluoro-5-(1′-(2-methoxyethyl)spiro[chromane-2,4′-piperidin]-6-yl)pyridin-3-yl)-3,4-dihydroisoquinolin-1(2H)-one]: the concentration for half-maximal inhibition (IC50) was 0.1 to 10 nM in test [1] and greater than 1000 nM on Lck (h).
Taken in the same sequence, the figures for `CCN1CCC(c2ccc(-c3cc(-c4cc5c(cc4F)C(=O)NCC5)c(N)nc3F)cc2)CC1` [I-245, 6-(2-amino-5-(4-(1-ethylpiperidin-4-yl)phenyl)-6-fluoropyridin-3-yl)-7-fluoro-3,4-dihydroisoquinolin-1(2H)-one] were 0.1 to 10 nM and greater than 1000 nM.
Taken in the same sequence, the figures for `CC(C)S(=O)(=O)c1ccc(-c2cc(-c3ccc4c(c3)CCNC4=O)c(N)nc2F)cc1` [I-15, 6-(2-amino-6-fluoro-5-(4-(isopropylsulfonyl)phenyl)pyridin-3-yl)-3,4-dihydroisoquinolin-1(2H)-one] were 0.1 to 10 nM and greater than 1000 nM.
The corresponding values for `CN1CCN(c2ccc(-c3cc(-c4ccc5c(c4)CCNC5=O)c(N)nc3F)cc2N)CC1` [I-332, 6-(2-amino-5-(3-amino-4-(4-methylpiperazin-1-yl)phenyl)-6-fluoropyridin-3-yl)-3,4-dihydroisoquinolin-1(2H)-one] are 0.1 to 10 nM and greater than 1000 nM.
As to `CNc1cc(-c2cc(-c3ccc(N4CCN(C(C)C)CC4)cc3)c(F)nc2N)cc2c1C(=O)NCC2` [I-356, 6-(2-amino-6-fluoro-5-(4-(4-isopropylpiperazin-1-yl)phenyl)pyridin-3-yl)-8-(methylamino)-3,4-dihydroisoquinolin-1(2H)-one], the figures for the IC50 (in test [1]; on Lck (h)) were 11 to 100 nM and 101 to 1000 nM, respectively.
The corresponding values for `COCCN1CCN(c2ccc(-c3cc(-c4ccc5c(c4)CCNC5=O)c(N)nc3F)cc2)CC1` [I-29, 6-(2-amino-6-fluoro-5-(4-(4-(2-methoxyethyl)piperazin-1-yl)phenyl)pyridin-3-yl)-3,4-dihydroisoquinolin-1(2H)-one] are 0.1 to 10 nM and greater than 1000 nM.
Taken in the same sequence, the figures for `Nc1nc(F)c(-c2ccc(N3CCS(=O)(=O)CC3)cc2)cc1-c1cc2c(cc1F)C(=O)NCC2` [I-346, 6-(2-amino-5-(4-(1,1-dioxidothiomorpholino)phenyl)-6-fluoropyridin-3-yl)-7-fluoro-3,4-dihydroisoquinolin-1(2H)-one] were 0.1 to 10 nM and greater than 1000 nM.

The values are drawn from patent US20240343704A1, “HALO-SUBSTITUTED AMINO PYRIDINE COMPOUNDS AS INHIBITORS OF THE HAEMATOPOIETIC PROGENITOR KINASE 1 (HPK1)” (priority 2021, published 2024).
